From PubChem BioAssay AID1259407 (Chemical Carcinogenesis Research Information System (CCRIS), 2018)
Activity calls are given as the source filed them. How the calls were made is not given here.

Tested on: CCRIS mutagenicity, Ames/micronucleus/aberration tests
Experiment: CCRIS mutagenicity studies
Conditions: Test System: AMES SALMONELLA TYPHIMURIUM
[1] = Strain/Indicator: TA98, Metabolic Activation: NONE, Method: PREINCUBATION
[2] = Strain/Indicator: TA100, Metabolic Activation: NONE, Method: PREINCUBATION

## CC1CCC(C(C)CS)CC1S (stereo not drawn)
Strain/Indicator: TA98, Metabolic Activation: HAMSTER, LIVER, S-9, AROCLOR 1254, Method: PREINCUBATION
  mutagenic call: inactive; negative
[1]
  mutagenic call: inactive; negative
Strain/Indicator: TA98, Metabolic Activation: RAT, LIVER, S-9, AROCLOR 1254, Method: PREINCUBATION
  mutagenic call: inactive; negative
Strain/Indicator: TA100, Metabolic Activation: HAMSTER, LIVER, S-9, AROCLOR 1254, Method: PREINCUBATION
  mutagenic call: inactive; negative
[2]
  mutagenic call: inactive; negative
Strain/Indicator: TA100, Metabolic Activation: RAT, LIVER, S-9, AROCLOR 1254, Method: PREINCUBATION
  mutagenic call: inactive; negative
Strain/Indicator: TA1535, Metabolic Activation: HAMSTER, LIVER, S-9, AROCLOR 1254, Method: PREINCUBATION
  mutagenic call: inactive; negative
Strain/Indicator: TA1535, Metabolic Activation: NONE, Method: PREINCUBATION
  mutagenic call: inactive; negative
Strain/Indicator: TA1535, Metabolic Activation: RAT, LIVER, S-9, AROCLOR 1254, Method: PREINCUBATION
  mutagenic call: inactive; negative
Strain/Indicator: TA1537, Metabolic Activation: HAMSTER, LIVER, S-9, AROCLOR 1254, Method: PREINCUBATION
  mutagenic call: inactive; negative
Strain/Indicator: TA1537, Metabolic Activation: NONE, Method: PREINCUBATION
  mutagenic call: inactive; negative
Strain/Indicator: TA1537, Metabolic Activation: RAT, LIVER, S-9, AROCLOR 1254, Method: PREINCUBATION
  mutagenic call: inactive; negative

## O=[N+]([O-])c1ccc2c(ccc3cc([N+](=O)[O-])ccc32)c1
Strain/Indicator: TA98(1,8-DNP6), Metabolic Activation: NONE, Method: STANDARD PLATE
  mutagenic call: active; positive
Strain/Indicator: TA98(NR), Metabolic Activation: NONE, Method: STANDARD PLATE
  mutagenic call: active; positive
[1]
  mutagenic call: active; positive
Strain/Indicator: TA98, Metabolic Activation: NONE, Method: STANDARD PLATE
  mutagenic call: active; positive
Strain/Indicator: TA98, Metabolic Activation: RAT, LIVER, S-9, PCB (10%), Method: PREINCUBATION
  mutagenic call: inactive; negative
Strain/Indicator: TA7001, Metabolic Activation: NONE, Method: PREINCUBATION
  mutagenic call: active; positive
Strain/Indicator: TA7002, Metabolic Activation: NONE, Method: PREINCUBATION
  mutagenic call: active; positive
Strain/Indicator: TA7003, Metabolic Activation: NONE, Method: PREINCUBATION
  mutagenic call: active; positive
Strain/Indicator: TA7004, Metabolic Activation: NONE, Method: PREINCUBATION
  mutagenic call: active; positive
Strain/Indicator: TA7005, Metabolic Activation: NONE, Method: PREINCUBATION
  mutagenic call: active; positive
Strain/Indicator: TA7006, Metabolic Activation: NONE, Method: PREINCUBATION
  mutagenic call: active; positive

## O=C1c2ccccc2C(=O)c2c1cc(O[C@H]1O[C@H](CO[C@@H]3OC[C@@H](O)[C@H](O)[C@H]3O)[C@@H](O)[C@H](O)[C@H]1O)c(CO)c2O
Strain/Indicator: TA98, Metabolic Activation: NONE, Method: PREINCUBATION (PH 6.5 OR 7.4)
  mutagenic call: inactive; negative
Strain/Indicator: TA98, Metabolic Activation: RAT, LIVER, S-9, SODIUM BARBITAL AND BETA-NAPHTHOFLAVONE, Method: PREINCUBATION (PH 6.5 OR 7.4)
  mutagenic call: inactive; negative
Strain/Indicator: TA100, Metabolic Activation: NONE, Method: PREINCUBATION (PH 6.5 OR 7.4)
  mutagenic call: active; positive
Strain/Indicator: TA100, Metabolic Activation: RAT, LIVER, S-9, SODIUM BARBITAL AND BETA-NAPHTHOFLAVONE, Method: PREINCUBATION
  mutagenic call: inactive; negative

## COc1cc(O)c2c(=O)c3c(OC)cc4c(c3oc2c1OC)[C@@H]1C=CO[C@@H]1O4
Strain/Indicator: TA98, Metabolic Activation: RAT, LIVER, S-9, PHENOBARBITAL, Method: STANDARD PLATE
  mutagenic call: inactive; negative
Strain/Indicator: TA100, Metabolic Activation: RAT, LIVER, S-9, PHENOBARBITAL, Method: STANDARD PLATE
  mutagenic call: active; positive

## Cc1cc(C)cc([N+](=O)[O-])c1
[1]
  mutagenic call: inactive; negative
Strain/Indicator: TA98, Metabolic Activation: RAT, LIVER, S-9, KANECHLOR 500, Method: PREINCUBATION
  mutagenic call: inactive; negative
[2]
  mutagenic call: inactive; negative
Strain/Indicator: TA100, Metabolic Activation: RAT, LIVER, S-9, KANECHLOR 500, Method: PREINCUBATION
  mutagenic call: inactive; negative
